Patent US5232932A, “Method for treatment of neurodegenerative diseases” (R. J. Reynolds Tobacco Company, priority 1992, dated 1993)

Key:
[1] = target: high affinity nicotinic receptors; assay: Inhibition of L-[3H]nicotine binding to mouse brain membrane preparations; parameters: species or system Mice (DBA strain); conditions: mouse brain membranes, 2 hr at 4° C., Ki calculated from IC50 by method of Cheng et al.
Experimental: Mice (DBA strain) were maintained on a 12 hour light/dark cycle and were allowed free access to water and food supplied by Wayne Lab Blox, Madison, WI. Animals used in the present studies were 60 to 90 days of age and weighed 20 to 25 g. Brain membrane preparations were obtained from pooled brain tissue of both males and females.
Mice were killed by cervical dislocation. Brains were removed and placed on an ice-cold platform. The cerebellum was removed and the remaining tissue was placed in 10 volumes (weight:volume) of ice-cold buffer (Krebs-RingersHEPES:NaCl, 118 mM; KCl, 4.8 mM; CaCl2, 2.5 mM; MgSO4, 1.2 mM; HEPES, 20 mM; pH to 7.5 with NaOH) and homogenized with a glass-Teflon tissue grinder. The resulting homogenate was centrifuged at 18000×g for 20 min. and the resulting pellet was resuspended in 20 volumes of water. […] Protein was determined by the method of Lowry, et al., J. Biol. Chem., Vol. 193, pp. 265-275 (1951), using bovine serum albumin as the standard.
The binding of L-[^3 H]nicotine was measured using a modification of the method of Romano, et al., Science, Vol. 210, pp. 647-650 (1980) as described previously by Marks, et al., Mol. Pharmacol., Vol. 30, pp. 427-436 (1986). The binding of L-[^3 H]nicotine was measured using a 2 hr. incubation at 4° C. […] Nonspecific binding was determined by inclusion of 10 μM nonradioactive nicotine in the incubations. […]

[2] = test system: synaptosomes from the striatal area of rat brain; assay: [3H]-dopamine release from rat striatal synaptosomes; type: biochemical, Sprague-Dawley rats; conditions: 0.2 ml of 10 μM solution of ligand; relative to equal concentration of (S)-(-)-nicotine
Experimental: Dopamine release was measured by preparing synaptosomes from the striatal area of rat brain obtained from Sprague-Dawley rats generally according to the procedures set forth by Nagy, et al., J. Neurochem., Vol. 43, pp. 1114-1123 (1984). Striata from 4 rats were homogenized in 2 ml of 0.32M sucrose buffered with 5 mM HEPES (pH 7.5), using a glass-teflon tissue grinder. The homogenate was diluted to 5 ml with additional homogenization solution and centrifuged at 1000×g for 10 min. This procedure was repeated on the new pellet and the resulting supernatant was centrifuged at 12,000×g for 20 min. […] Using this method, 30 to 90 percent of the dopamine was taken up into the synaptosomes, as determined by scintillation counting following filtration through glass fiber filters soaked with 0.5 percent polyethyleneimine. […] After the addition of a 0.2 ml of a 10 μM solution of ligand, the perfusate was collected into scintillation vials at 1 min. intervals and the dopamine released was quantified by scintillation counting. Peaks of radioactivity released above background were summed and the average basal release during that time was subtracted from the total. Release was expressed as a percentage of release obtained with an equal concentration of (S)-(-)-nicotine.

SMILES: CNCCCC(=O)c1cccnc1 [pseudooxynicotine]
- Ki [1]: 1700 nM
- Dopamine Release, percent release relative to (S)-(-)-nicotine [2]: 45%
